Measured values: EP4624497A1, “PHOSPHOEN[…] PROBE, PREPARATION METHOD THEREFOR AND APPLICATION THEREOF” (priority 2022, dated 2024)

Key:
Test in all cases: phosphoenolpyruvate titration of purified optical probe (fluorescence ratio)
Assay type in all cases: binding
Settings in all cases: phosphoenolpyruvate 0 to 10 mM, purified probe treated 10 minutes, ex 420/485 nm, em 528 nm
[1] = molecular target: T1, Thermus thermophilus TtPFK optical probe 254/255-TtPFK-I253K/Q254L/R255L/G256F-cpYFP-Y1S, SEQ ID NO: 12 (Thermus thermophilus, UniProt P21777, form not given/G256F/I253K/Q254L/R255L)
T1 construct: the numbering corresponds to the full length of the phosphoenolpyruvate-sensitive polypeptide; His-tag; made in house; host or cells: E. coli BL21 (DE3)
Protocol: (§1) • 1. The expression vectors (for example, a phosphoenolpyruvate optical probe expression vector based on pCDF.) were transformed into BL21 (DE3) cells, incubated inverted overnight, and the clones were picked from the plates into 250 mL Erlenmeyer flasks, placed in a shaker at 37 °C and incubated at 220 rpm to OD=0.4-0.8, then 1/1000 (V/V) of IPTG (1 M) was added to induce expression at 18 °C for 24-36 hours. • 2. Upon completion of inducible expression, cells were harvested by centrifugation at 4000 rpm for 30 min, resuspended in 50 mM phosphate buffer and disrupted ultrasonically until the broth were clear, centrifuged at 9600 rpm at 4 °C for 20 min. • 3. The centrifuged supernatant was used to obtain protein by purification through a self-packed nickel column affinity chromatography column, and the protein obtained after nickel column affinity chromatography was further used to obtain protein dissolved in 100 mM HEPES buffer (pH 7.4). • 4. After purified proteins were subjected to SDS-PAGE, probes were diluted to a protein solution having a final concentration of 0.2-5 µM using assay buffer (100 mm HEPES, 100 mM NaCl, pH 7.4). Phosphoenolpyruvate was formulated as a stock solution at a final concentration of 50 mM with the assay buffer (100 mM HEPES, 100 mM NaCl, pH 7.4). • 5. 100 µl 1 µM of protein solution was taken, incubated at 37 °C for 10 min, phosphoenolpyruvate was added for titration, and the fluorescence intensity of 528 nm emission after 420 nm and 485 nm fluorescence excitation of the protein was measured. The fluorescence excitation and emission determination of the samples were done using a multifunctional fluorescence microplate reader. • 6. 100 µl 1 µM of protein solution was taken, incubated at 37 °C for 10 min, and phosphoenolpyruvate was added to determine the absorption and fluorescence spectra of the proteins. Determination of the absorption and fluorescence spectra of the samples was done by spectrophotometer and spectrofluorometer.
(§2) The recombinant plasmids of the mutation library were transformed into BL21 (DE3) to induce expression, and the purified probe protein was subjected to phosphoenolpyruvate-responsive screening, dividing the detection signal of the fusion fluorescent protein containing 2 mM phosphoenolpyruvate by that of the fusion fluorescent protein without phosphoenolpyruvate. […]

[2] = molecular target: T2, Thermus thermophilus TtPFK optical probe 254/256-TtPFK-cpYFP variant, TtPFK I253S/Q254L/G256V/G257L, cpYFP Y1T/N246F (Thermus thermophilus, UniProt P21777, form not given/G256V/G257L/I253S/Q254L)
T2 construct: the numbering corresponds to the full length of the phosphoenolpyruvate-sensitive polypeptide; His-tag; made in house; host or cells: E. coli BL21 (DE3)
Protocol: as §1, §2

[3] = molecular target: T3, Thermus thermophilus TtPFK optical probe 254/256-TtPFK-cpYFP variant, TtPFK S216L/I253Q/Q254L/G256V/G257L, cpYFP Y1T/N246F (Thermus thermophilus, UniProt P21777, form not given/G256V/G257L/I253Q/Q254L/S216L)
T3 construct: the numbering corresponds to the full length of the phosphoenolpyruvate-sensitive polypeptide; His-tag; made in house; host or cells: E. coli BL21 (DE3), pCDF vector
Protocol: as §1
(§3) For the 254/255-TtPFK-cpYFP obtained in Example 2 and the 254/255-TtPFK-I253G/Q254L/R255L/G256F-cpYFP-Y1P, 254/255-TtPFK-I253K/Q254L/R255L/G256F-cpYFP-Y1S and 254/256-TtPFK-I253Q/Q254L/G256V/G257L-cpYFP-Y1T/N246F optical probes obtained in Example 6, amino acid were mutated at positions R21, R25, V54, R55, V57, A58, N59, I60, I61, R155, G186, R212, G213, K214, K215, S216 and L320 in the phosphoenolpyruvate binding pocket, and at positions R72, R163, R172 and R246 in the ATP binding pocket to adjust the affinity of the phosphoenolpyruvate optical probe to phosphoenolpyruvate and the substrate specificity. The probes were linearized by reverse PCR, and the sequences of the mutation sites were introduced into the primers. The obtained PCR products were subjected to homologous recombination to obtain plasmids containing the above site mutations. The mutant plasmids were transformed into BL21 (DE3) for induced expression, and the mutant probe proteins were purified for the phosphoenolpyruvate response test. The detection signal of the fusion fluorescent protein containing 2 mM phosphoenolpyruvate was divided by the detection signal of the fusion fluorescent protein without phosphoenolpyruvate. […]

[4] = molecular target: T4, Thermus thermophilus TtPFK optical probe 254/256-TtPFK-cpYFP variant, TtPFK G213T/I253Q/Q254L/G256V/G257L, cpYFP Y1T/N246F (Thermus thermophilus, UniProt P21777, form not given/G213T/G256V/G257L/I253Q/Q254L)
T4 construct: the numbering corresponds to the full length of the phosphoenolpyruvate-sensitive polypeptide; His-tag; made in house; host or cells: E. coli BL21 (DE3)
Protocol: as §1, §3

[5] = molecular target: T5, Thermus thermophilus TtPFK optical probe 254/255-TtPFK-cpYFP variant, TtPFK V54K/I253K/Q254L/R255L/G256F, cpYFP Y1S (Thermus thermophilus, UniProt P21777, form not given/G256F/I253K/Q254L/R255L/V54K)
T5 construct: the numbering corresponds to the full length of the phosphoenolpyruvate-sensitive polypeptide; His-tag; made in house; host or cells: E. coli BL21 (DE3)
Protocol: as §1, §3

[6] = molecular target: T6, Thermus thermophilus TtPFK optical probe 254/256-TtPFK-cpYFP variant, TtPFK V54Q/I253Q/Q254L/G256V/G257L, cpYFP Y1T/N246F (Thermus thermophilus, UniProt P21777, form not given/G256V/G257L/I253Q/Q254L/V54Q)
T6 construct: the numbering corresponds to the full length of the phosphoenolpyruvate-sensitive polypeptide; His-tag; made in house; host or cells: E. coli BL21 (DE3)
Protocol: as §1, §3

[7] = molecular target: T7, Thermus thermophilus TtPFK optical probe 254/255-TtPFK-cpYFP variant, TtPFK V54Q/I253K/Q254L/R255L/G256F, cpYFP Y1S (Thermus thermophilus, UniProt P21777, form not given/G256F/I253K/Q254L/R255L/V54Q)
T7 construct: His-tag; made in house; host or cells: E. coli BL21 (DE3)
Protocol: as §1, §3

[8] = molecular target: T8, Thermus thermophilus TtPFK optical probe 254/255-TtPFK-cpYFP variant, TtPFK N59H/I253G/Q254L/R255L/G256F, cpYFP Y1P (Thermus thermophilus, UniProt P21777, form not given/G256F/I253G/N59H/Q254L/R255L)
T8 construct: the numbering corresponds to the full length of the phosphoenolpyruvate-sensitive polypeptide; His-tag; made in house; host or cells: E. coli BL21 (DE3)
Protocol: as §1, §3

T5 sequence (P21777 other isoform, or with tags, fused parts or gaps V54K, form open): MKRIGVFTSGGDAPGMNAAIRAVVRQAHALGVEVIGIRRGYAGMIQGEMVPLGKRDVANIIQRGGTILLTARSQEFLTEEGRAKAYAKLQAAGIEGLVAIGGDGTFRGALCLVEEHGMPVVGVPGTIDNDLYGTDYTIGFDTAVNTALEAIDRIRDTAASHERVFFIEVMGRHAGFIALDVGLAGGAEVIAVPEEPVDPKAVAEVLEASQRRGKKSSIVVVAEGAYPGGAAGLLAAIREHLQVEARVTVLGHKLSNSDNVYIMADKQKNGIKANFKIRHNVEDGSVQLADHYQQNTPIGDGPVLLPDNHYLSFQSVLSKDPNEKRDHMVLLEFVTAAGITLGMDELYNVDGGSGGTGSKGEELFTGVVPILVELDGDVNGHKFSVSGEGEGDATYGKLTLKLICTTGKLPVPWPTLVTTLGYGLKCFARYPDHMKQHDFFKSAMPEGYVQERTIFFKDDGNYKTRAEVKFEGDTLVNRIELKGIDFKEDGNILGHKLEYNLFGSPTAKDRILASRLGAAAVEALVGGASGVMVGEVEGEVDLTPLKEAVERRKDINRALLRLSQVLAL
T2 sequence (P21777 other isoform, or with tags, fused parts or gaps, stated change not applied): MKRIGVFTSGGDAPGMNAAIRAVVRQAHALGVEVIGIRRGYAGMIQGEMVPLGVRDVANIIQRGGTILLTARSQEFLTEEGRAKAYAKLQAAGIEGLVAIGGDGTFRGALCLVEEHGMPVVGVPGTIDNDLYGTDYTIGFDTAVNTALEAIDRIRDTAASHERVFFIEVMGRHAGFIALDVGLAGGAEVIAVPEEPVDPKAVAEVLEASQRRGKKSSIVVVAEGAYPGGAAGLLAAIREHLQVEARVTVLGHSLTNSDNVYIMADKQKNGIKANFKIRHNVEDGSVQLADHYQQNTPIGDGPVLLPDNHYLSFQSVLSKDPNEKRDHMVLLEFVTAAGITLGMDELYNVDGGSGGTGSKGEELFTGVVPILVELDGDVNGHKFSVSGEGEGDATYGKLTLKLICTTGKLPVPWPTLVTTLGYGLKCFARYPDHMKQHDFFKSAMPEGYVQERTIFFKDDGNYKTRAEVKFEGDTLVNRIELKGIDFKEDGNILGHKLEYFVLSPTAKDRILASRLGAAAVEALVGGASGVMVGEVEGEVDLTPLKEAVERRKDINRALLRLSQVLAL
T6 sequence (P21777 other isoform, or with tags, fused parts or gaps V54Q, form open): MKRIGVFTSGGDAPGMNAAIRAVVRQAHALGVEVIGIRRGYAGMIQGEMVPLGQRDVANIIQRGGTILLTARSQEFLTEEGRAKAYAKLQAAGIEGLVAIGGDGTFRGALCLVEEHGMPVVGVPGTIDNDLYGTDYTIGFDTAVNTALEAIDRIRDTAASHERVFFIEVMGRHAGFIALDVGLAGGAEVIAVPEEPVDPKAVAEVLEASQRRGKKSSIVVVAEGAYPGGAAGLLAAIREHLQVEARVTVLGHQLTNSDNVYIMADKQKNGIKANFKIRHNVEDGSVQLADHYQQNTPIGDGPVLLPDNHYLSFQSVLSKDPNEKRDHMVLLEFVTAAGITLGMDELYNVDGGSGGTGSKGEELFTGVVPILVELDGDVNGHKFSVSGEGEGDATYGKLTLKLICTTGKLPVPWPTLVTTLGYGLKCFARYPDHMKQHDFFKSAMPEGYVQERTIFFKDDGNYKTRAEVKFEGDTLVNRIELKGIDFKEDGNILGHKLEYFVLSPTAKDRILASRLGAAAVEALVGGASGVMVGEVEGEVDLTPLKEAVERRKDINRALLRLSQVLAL
T3 sequence (P21777 other isoform, or with tags, fused parts or gaps S216L, form open): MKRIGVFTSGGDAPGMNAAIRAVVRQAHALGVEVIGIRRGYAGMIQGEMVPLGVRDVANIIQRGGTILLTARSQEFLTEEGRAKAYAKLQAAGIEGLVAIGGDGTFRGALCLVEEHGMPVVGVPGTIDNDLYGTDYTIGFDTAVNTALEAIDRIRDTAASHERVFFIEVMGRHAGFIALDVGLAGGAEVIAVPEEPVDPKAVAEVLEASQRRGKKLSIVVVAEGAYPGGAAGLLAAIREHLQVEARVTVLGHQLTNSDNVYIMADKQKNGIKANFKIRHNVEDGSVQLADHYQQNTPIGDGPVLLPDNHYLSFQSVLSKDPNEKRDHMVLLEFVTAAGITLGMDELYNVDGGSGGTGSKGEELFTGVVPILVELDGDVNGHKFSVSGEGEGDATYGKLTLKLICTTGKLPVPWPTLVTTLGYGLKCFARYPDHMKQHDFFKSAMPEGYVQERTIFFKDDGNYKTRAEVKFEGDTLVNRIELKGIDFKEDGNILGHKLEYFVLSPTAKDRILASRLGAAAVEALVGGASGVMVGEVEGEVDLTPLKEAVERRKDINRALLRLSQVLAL
T4 sequence (P21777 other isoform, or with tags, fused parts or gaps G213T, form open): as the sequence (P21777 other isoform, or with tags, fused parts or gaps S216L, form open) above, with G213T, L216S counted along it
T7 sequence (P21777 other isoform, or with tags, fused parts or gaps V54Q, form open): as the sequence (P21777 other isoform, or with tags, fused parts or gaps V54K, form open) above, with K54Q counted along it
T1 sequence (P21777 other isoform, or with tags, fused parts or gaps, stated change not applied): as the sequence (P21777 other isoform, or with tags, fused parts or gaps V54K, form open) above, with K54V counted along it
T8 sequence (P21777 other isoform, or with tags, fused parts or gaps N59H, form open): as the sequence (P21777 other isoform, or with tags, fused parts or gaps V54K, form open) above, with K54V, N59H, K253G, S255P counted along it

In the case of `C=C(OP(=O)(O)O)C(=O)O` [phosphoenolpyruvate, Phosphoenolpyruvate], the Kd [1] is reported as 17.5 µM, the Kd [2] is reported as 8.93 µM and the Kd [3] is reported as 1.39 µM. For the same molecule, the Kd [4] was 199 µM, the Kd [5] was 129 µM and the Kd [6] was 281 µM. For the same molecule, the Kd [7] was 328 µM and the Kd [8] was 178 µM.
